Entries after “also recorded” stand apart in the source; their conditions may differ.
Assays:
CLL = settings: cited from earlier work
euTCL1 (CLL model mouse) = assay: Aging CLL model; format: in vivo
Procedure: (§1) Flow cytometric analysis of peripheral blood mononuclear cells (PBMCs) was performed using fluorochrome-labeled monoclonal antibodies and the vitality dye 4′,6-diamidino-2-phenylindole. Data was acquired on an LSRII cytometer (Becton, Dickinson and Company; Franklin Lakes, NJ), and analyzed with FlowJo software (FlowJo; Ashland, Oreg). Absolute cell numbers calculated using AccuCheck Counting beads (ThermoFisher Scientific; Waltham, MA).
(§2) All animal studies involving euTCL1 and its cross with HDAC6KO were performed following established protocols that followed approved Institutional Animal Care and Use Committee (IACUC) procedures. Two mouse models of CLL were used: an Aging CLL model, and an Accelerated CLL Model.
Birth • euTCL1 (CLL model mouse) and • euTCL1/HDAC6KO transgenic mice
5-7 Months • Flow cytometry analysis • For analysis of disease
9 Months • Flow cytometry analysis • For analysis of disease
12 Months • Flow cytometry analysis • For analysis of disease • Observe for survival B) Accelerated CLL Model

[1] = system: C57BL/6 mice adoptively transferred with euTCL1 splenocytes; format: in vivo; settings: for expression of PD-1 and LAG-3: adoptive transfer, Compound D feed, Compound A injection, 10 weeks post adoptive transfer
Procedure: as §1, §2
Day 0 • Adoptive transfer of 5×10^6 euTCL1 or euTCL1/1-IDAC6KO splenocytes
Week 3-5 • Flow cytometry analysis • For analysis of disease
Week 9 • Flow cytometry analysis • For analysis of disease
Week 12 • Flow cytometry analysis • For analysis of disease • Observe for survival
Flow cytometry analysis and gating: B-cells (malignant population CD19+/CD5+/CD45R (B220)+/IgM+/Igk+; for normal B-cells CD19+/CD5−/CD45R (B220)+/IgM+/Igk−T-regs were identified as CD3+/CD4+/CD25 hi/IL-7R low. For Co-inhibitory molecule expression CD223 (LAG3), CD279 (PD-1), CD274 (PDL-1), and CD273 (PDL-2).

Mec1 cells = assay: IL-10 production by Mec1 cells stimulated with LPS; format: cell-based; settings: Mec1 cells treated 24 hours
[2] = clinical trials, myeloma and lymphoma; cited from earlier work

## CCCC(CCC)C(=O)O [valproic acid]
CLL
  antileukemic activity in CLL: induced antileukemic activity

## O=C(NO)c1cnc(NC2(c3ccccc3)CC2)nc1 [Compound D, N-hydroxy-2-((1-phenylcyclopropyl)amino)pyrimidine-5-carboxamide]
euTCL1 (CLL model mouse); 9 months old/25 weeks post treatment start date, vs mice treated without Compound D
  disease burden: significantly lower disease burden
euTCL1 (CLL model mouse); feed daily, flow cytometry, vs mice not treated
  expression of PD-1 and LAG-3 on T-regs: lower PD-1 and LAG-3 expression; also recorded: reduced
euTCL1 (CLL model mouse); vs mice not treated
  overall survival: more advantageous overall survival
[1]; B cells isolated from treated mice vs non-treated animals
  expression of PD-L1 on B cells: decrease
[1]; adoptive transfer model
  disease burden: significantly lower disease burden
  overall survival: more advantageous overall survival
[1]
  expression of PD-1 and LAG-3: lower expression; also recorded: reduced
[1]; treatment in chow, week 10 post-adoptive transfer, flow cytometry
  PD-1 and LAG3 on CD4+ T-cells: normalization

## Nc1ccccc1NC(=O)c1ccc(CNc2nccc(-c3cccnc3)n2)cc1 [MGCD0103]
CLL
  antileukemic activity in CLL: induced antileukemic activity

## O=C(CCCCCCNC(=O)c1cnc(N(c2ccccc2)c2ccccc2)nc1)NO [Compound A, 2-(diphenylamino)-N-(7-(hydroxyamino)-7-oxoheptyl)pyrimidine-5-carboxamide]
Mec1 cells
  IL-10 production: dose-dependent decrease
[1]
  expression of PD-1 and LAG-3: lower expression; also recorded: reduced
[2]
  tolerability: well-tolerated
